Results reported in patent EP1985629A1, “Pro-apoptotic molecules and therapeutic uses thereof” (UNIVERSITA DEGLI STUDI DI GENOVA, priority 2007, dated 2008).
Where a SMILES comes first, the peptide text is derived from it. [ ]: non-standard residue; d: D form. Aib = CC(C)(N)C(=O)O

Experiments:
[1] = system: U937 cell line; test: Cell growth, cell counts (trypan blue exclusion); format: cell-based, human; conditions: U937, 1 µM up to 30 µM, four days
Procedure: • Figure 1 Fluorescence Anisotropy Assay. Average anisotropy values: (open square) binding assay for increasing concentrations of Bcl-XL at a fixed concentration of fluorescent Bak-BH3 peptide. […] The error bars represent standard deviations observed from triplicate experiments. • Figure 2 072RB: cell growth effects. Panel A: Cell growth of U937 cell line treated for four days every 24 h at a 1 µM 072RB concentration and every 48 h at 3, 5, 10 and 30 µM 072RB concentrations. U937 controls at day 4, cell number: 350,000 ±50,000. Number of cells seeded at day 0: 20,000. Arrows indicate treatment time. […] All cells were counted in a Burker chamber and values are expressed as percentage of the untreated control cell number. Only living cells identified by trypan blue exclusion staining were counted. […] Flow cytometry measurements of DNA content (evaluated by propidium iodide (PI) fluorescence intensity) and physical cell side-scattering (evaluated by SSC) in U937 cells treated with Int and 072RB at 10 µM, twice each 48h. […] Three main cell populations can be observed in the bivariate PI/SSC plots, one with low SSC and normal DNA content (that accounts for "live" cells in culture), another with high SSC and normal DNA content (cells undergoing "early stage of apoptosis") and another one with lower PI fluorescence (cells at "late stage of apoptosis" and debris). […]

[2] = system: peripheral blood lymphocytes (PBL); test: Viability of normal peripheral blood lymphocytes; format: cell-based, human; conditions: for ratio of viable cells, treated versus untreated: two pulses at a 48 h interval, four days, mean ± SE
Procedure: The leukemic myelomonocytic cell line U937, the T cell leukaemia cell line Jurkat, the Burkitt lymphoma cell line Namalwa were grown in RPMI 1640 medium supplemented with 10% FBS, 1% sodium pyruvate, 1% non essential aminoacids, 1% penicillin/streptomycin. 2.5·10^4 cells were seeded on 48 wells plates (Corning Costar). The treatment was performed on triplicate wells. Drug concentration ranged from 1 µM up to 30 µM, four treatments every 24 h or two treatments every 48 h were performed. Human peripheral blood lymphocytes obtained from healthy volunteers by venipuncture, were isolated by lymphocyte separation medium (Ficoll) density gradient centrifugation. Mononuclear cells from the interphase were washed twice with PBS and resuspended in RPMI 1640 medium containing 10% FCS, glutamine and antibiotics. Phytohemagglutinin (PHA) was added at 1.5 µg/ml final concentration.
PI uptake tests were performed to assess cell viability. Cells suspended in culture medium were incubated for 5 min with 3 µg/ml PI and analysed by flow cytometry. […] At least 10,000 events were acquired on a logarithmic scale from each sample.
Bone marrow aspirates from patients with different leukaemia types were plated in tissue culture medium supplemented with 20% FCS, treated with 072RB twice every 48 h, and followed for 4 days. They were evaluated by flow cytometry DNA/SSC analysis, In Table 3 we show the percentage of [early + late apoptotic cells], according to leukaemia type and Int or 072RB dosage. To further study sensitivity to 072RB of normal cells, peripheral blood lymphocytes (PBL) isolated from four independent healthy donors were subjected to a four-days treatment with 10 µM 072RB. Treatment was performed, as usual, with two pulses at a 48 h interval. Lymphocytes were either un-stimulated or activated by PHA. […] Comparing treated and untreated normal peripheral lymphocytes, the ratio of viable cells between the two groups was 0.87 ± 0.05 (mean ± SE) for quiescent lymphocytes and 0.82 ± 0.057 for proliferating lymphocytes. This effect of 072RB on normal lymphocytes seems especially small if we consider the effects observed in leukaemia cell lines (see supplementary information), and also the effects observed in AML cells from ex vivo experiments: 0.55 ± 0.145 (mean ± SE). Table 3: Effect of 072RB on haematological malignancies (AML: acute myeloid leukaemia; ALL: acute lymphoid leukaemia; NBM: normal bone marrow): percentage of early/late apoptotic cells. Mean values from duplicate experiments are reported. The difference between the two individual values never exceeded 15% of the mean value. Ex vivo isolated cells were treated with either Int or 072RB at day 0, 2 (5, 10 µM), at day 0, 1, 2, 3 (1, 3 µM) and analysed after PI staining at day 4.

With `CC[C@H](C)[C@H](NC(=O)[C@H](CCCNC(=N)N)NC(=O)[C@H](CCCNC(=N)N)NC(=O)[C@H](CC(C)C)NC(=O)[C@H](CCC(=O)O)NC(=O)[C@H](CCC(N)=O)NC(=O)C(C)(C)NC(=O)[C@@H](NC(=O)[C@H](Cc1ccc(O)cc1)NC(=O)[C@@H](NC(=O)[C@H](CCC(=O)O)NC(=O)[C@@H]1CCCN1C(=O)[C@H](CCCNC(=N)N)NC(=O)[C@H](CCSC)NC(=O)[C@@H](N)CC(=O)O)[C@@H](C)CC)[C@@H](C)CC)C(=O)NCC(=O)N[C@@H](CC(=O)O)C(=O)N[C@@H](C)C(=O)N[C@@H](Cc1ccccc1)C(=O)N[C@@H](CC(N)=O)C(=O)NC(C)(C)C(=O)N[C@@H](Cc1ccc(O)cc1)C(=O)N[C@@H](CCCCN)C(=O)N[C@@H](CCCCN)C(=O)N[C@@H](Cc1c[nH]c2ccccc12)C(=O)N[C@@H](CCCCN)C(=O)N[C@@H](CCSC)C(=O)N[C@@H](CCCNC(=N)N)C(=O)N[C@@H](CCCNC(=N)N)C(=O)N[C@@H](CC(N)=O)C(=O)N1CCC[C@H]1C(=O)N[C@@H](Cc1ccccc1)C(=O)N[C@@H](Cc1c[nH]c2ccccc12)C(=O)N[C@H](C(=O)N[C@@H](CCCCN)C(=O)N[C@H](C(=O)N[C@@H](CCC(N)=O)C(=O)N[C@@H](CCCNC(=N)N)C(N)=O)[C@@H](C)CC)[C@@H](C)CC` [Peptide 072RB] (H-DMRPEIYI[Aib]QELRRIGDAFN[Aib]YKKWKMRRNPFWIKIQR-NH2; N-terminus and C-terminus assumed) the “cell growth (cell counts)” value [1] was “dose-dependent inhibition of cell growth”, the “effect on cell viability and cell proliferation” value ([2]; normal peripheral lymphocytes, data not reported) was “cytostatic rather than cytotoxic” and the “ratio of viable cells, treated versus untreated” value ([2]; proliferating (PHA activated) lymphocytes, 10 µM) was 0.82 ± 0.057. The toxicity ([2]; quiescent lymphocytes, 10 µM) was “quite negligible” and the “ratio of viable cells, treated versus untreated” value ([2]; quiescent lymphocytes, 10 µM) was 0.87 ± 0.05.
